According to patent publication US11911386B2, “Methods of treating B-cell proliferative disorder” (BeiGene Switzerland GmbH, priority 2022, dated 2024):
“And” between values parts separate entries of the source, which are not always exact repeats. Identical values can stand only once. Like-named read-outs stand apart in the source and are kept apart here.

C=CC(=O)N1CCC([C@@H]2CCNc3c(C(N)=O)c(-c4ccc(Oc5ccccc5)cc4)nn32)CC1 [zanubrutinib, (S)-7-(1-acryloylpiperidin-4-yl)-2-(4-phenoxyphenyl)-4,5,6,7-tetrahydropyrazolo[1,5-a]pyrimidine-3-carboxamide]
Anemia AESI ≥Grade 3, EAIR (After Coadministration): 0.18 per 100 person-months
Anemia AESI, EAIR (After Coadministration): 0.53 per 100 person-months
Atrial fibrillation PT (After Coadministration): 2.8%
Atrial fibrillation and flutter AESI Grade ≥3, EAIR (After Coadministration): 0.18 per 100 person-months
Atrial fibrillation and flutter AESI Grade ≥3, patients (After Coadministration): 3.7%
Atrial fibrillation and flutter AESI, EAIR (After Coadministration): 0.23 per 100 person-months
Atrial fibrillation and flutter AESI, patients (After Coadministration): 4.7%
Atrial flutter PT (After Coadministration): 1.9%
Basal cell carcinoma (After Coadministration): 5.6%
Basal cell carcinoma leading to dose interruption (After Coadministration): 1 (0.9%) n (%)
Basal cell carcinoma ≥Grade 3 (After Coadministration): 1 (0.9%) n (%)
External ear neoplasm malignant leading to dose interruption (After Coadministration): 0 (0.0%) n (%)
Febrile neutropenia PT (After Coadministration): 3.7%
Grade 3 or higher AESI (After Coadministration): 48 (44.9) n (%)
Haematuria (hemorrhage AESI) (After Coadministration): 4.7%
Haematuria (major hemorrhage) (After Coadministration): 0 (0.0%) n (%)
Haematuria (major hemorrhage) ≥Grade 3 (After Coadministration): 0 (0.0%) n (%)
Haematuria leading to dose interruption (After Coadministration): 0.0%
Haematuria ≥Grade 3 (After Coadministration): 0 (0.0%) n (%)
Hemorrhage AESI leading to dose interruption (After Coadministration): 2.8%
Hemorrhage AESI leading to dose reduction (After Coadministration): 0.9%
Hemorrhage AESI ≥Grade 3, EAIR (After Coadministration): 0.09 per 100 person-months
Hemorrhage AESI ≥Grade 3, patients (After Coadministration): 1.9%
Hemorrhage AESI, EAIR (After Coadministration): 1.39 per 100 person-months
Hemorrhage AESI, patients (After Coadministration): 23.4%
Hypertension AESI ≥Grade 3, EAIR (After Coadministration): 0.18 per 100 person-months
Hypertension AESI ≥Grade 3, patients (After Coadministration): 3.7%
Hypertension AESI, EAIR (After Coadministration): 0.37 per 100 person-months
Hypertension AESI, patients (After Coadministration): 7.5%
Infection AESI leading to dose reduction (After Coadministration): 1.9%
Infection AESI leading to treatment discontinuation (After Coadministration): 3.7%
Infection AESI ≥Grade 3, EAIR (After Coadministration): 1.45 per 100 person-months
Infection AESI, EAIR (After Coadministration): 9.70 per 100 person-months
Major hemorrhage AESI leading to dose interruption (After Coadministration): 0.9%
Major hemorrhage AESI ≥Grade 3, EAIR (After Coadministration): 0.09 per 100 person-months
Major hemorrhage AESI ≥Grade 3, patients (After Coadministration): 1.9%
Major hemorrhage AESI, EAIR (After Coadministration): 0.09 per 100 person-months
Major hemorrhage AESI, patients (After Coadministration): 1.9%
Malignant melanoma (After Coadministration): 1 (0.9%) n (%)
Neutropenia AESI leading to dose reduction (After Coadministration): 1.9%
Neutropenia AESI leading to treatment interruption (After Coadministration): 6.5%
Neutropenia AESI ≥Grade 3, EAIR (After Coadministration): 0.63 per 100 person-months
Neutropenia AESI ≥Grade 3, patients (After Coadministration): 20.1%
Neutropenia AESI, EAIR (After Coadministration): 0.92 per 100 person-months
Neutropenia AESI, patients (After Coadministration): 16.8%
Neutropenic sepsis PT (After Coadministration): 0.0%
Neutropenic sepsis ≥Grade 3 (After Coadministration): 0.0%
Neutrophil count decreased leading to dose reduction (After Coadministration): 0.0%
Opportunistic infection AESI leading to dose reduction (After Coadministration): 0.9%
Opportunistic infection AESI leading to treatment discontinuation (After Coadministration): 0.9%
Opportunistic infection AESI ≥Grade 3, EAIR (After Coadministration): 0.04 per 100 person-months
Opportunistic infection AESI ≥Grade 3, patients (After Coadministration): 1 (0.9%) n (%)
Opportunistic infection AESI, EAIR (After Coadministration): 0.13 per 100 person-months
Opportunistic infection AESI, patients (After Coadministration): 2.8%
Opportunistic infection SAEs, EAIR (After Coadministration): 0.04 per 100 person-months
Patients with at least 1 AESI (After Coadministration): 89 (83.2) n (%)
Petechiae (hemorrhage AESI) (After Coadministration): 0.0%
Platelet count decreased PT (After Coadministration): 4.7%
Platelet count decreased ≥Grade 3 (After Coadministration): 0.9%
Purpura (hemorrhage AESI) (After Coadministration): 0.0%
SAEs of opportunistic infections, patients (After Coadministration): 0.9% and 2.8%
Second primary malignancies AESI leading to dose interruption (After Coadministration): 5.6%
Second primary malignancies AESI leading to treatment discontinuation (After Coadministration): 2.8%
Second primary malignancies AESI ≥Grade 3, EAIR (After Coadministration): 0.27 per 100 person-months
Second primary malignancies AESI ≥Grade 3, patients (After Coadministration): 5.6%
Second primary malignancies AESI, EAIR (After Coadministration): 0.60 per 100 person-months
Second primary malignancies AESI, patients (After Coadministration): 12.1%
Serious anemia AESI, EAIR (After Coadministration): 0.04 per 100 person-months
Serious atrial fibrillation and flutter AESI, EAIR (After Coadministration): 0.09 per 100 person-months
Serious atrial fibrillation and flutter AESI, patients (After Coadministration): 1.9%
Serious external ear neoplasm malignant (After Coadministration): 0 (0.0%) n (%)
Serious haematuria (After Coadministration): 0 (0.0%) n (%)
Serious haematuria (major hemorrhage) (After Coadministration): 0 (0.0%) n (%)
Serious hemorrhage AESI, EAIR (After Coadministration): 0.09 per 100 person-months
Serious hemorrhage AESI, patients (After Coadministration): 1.9%
Serious infection AESI, EAIR (After Coadministration): 1.15 per 100 person-months
Serious major hemorrhage AESI, EAIR (After Coadministration): 0.09 per 100 person-months
Serious major hemorrhage AESI, patients (After Coadministration): 1.9%
Serious neutropenia AESI, EAIR (After Coadministration): 0.18 per 100 person-months
Serious neutropenia AESI, patients (After Coadministration): 3.7%
Serious neutropenic sepsis (After Coadministration): 0%
Serious neutrophil count decreased (After Coadministration): 0.0%
Serious second primary malignancies AESI, EAIR (After Coadministration): 0.13 per 100 person-months
Serious second primary malignancies AESI, patients (After Coadministration): 2.8%
Serious squamous cell carcinoma of skin (After Coadministration): 0 (0.0%) n (%)
Skin cancer AESI ≥Grade 3, EAIR (After Coadministration): 0.13 per 100 person-months
Skin cancer AESI, EAIR (After Coadministration): 0.41 per 100 person-months
Skin cancer AESI, patients (After Coadministration): 8.4%
Skin cancer SAE, EAIR (After Coadministration): 0.04 per 100 person-months
Squamous cell carcinoma of skin (After Coadministration): 0.9%
Squamous cell carcinoma of skin ≥Grade 3 (After Coadministration): 1 (0.9%) n (%)
Thrombocytopenia AESI leading to dose interruption (After Coadministration): 0.0%
Thrombocytopenia AESI ≥Grade 3, EAIR (After Coadministration): 0.13 per 100 person-months
Thrombocytopenia AESI ≥Grade 3, patients (After Coadministration): 2.8%
Thrombocytopenia AESI, EAIR (After Coadministration): 0.41 per 100 person-months
Thrombocytopenia AESI, patients (After Coadministration): 8.4%
Thrombocytopenia PT (After Coadministration): 3.7%
Anemia AESI ≥Grade 3, EAIR (During Coadministration): 1.70 per 100 person-months
Anemia AESI, EAIR (During Coadministration): 1.91 per 100 person-months
Atrial fibrillation PT (During Coadministration): 1.4%
Atrial fibrillation and flutter AESI Grade ≥3, EAIR (During Coadministration): 0.33 per 100 person-months
Atrial fibrillation and flutter AESI Grade ≥3, patients (During Coadministration): 1.4%
Atrial fibrillation and flutter AESI, EAIR (During Coadministration): 0.33 per 100 person-months
Atrial fibrillation and flutter AESI, patients (During Coadministration): 1.4%
Atrial flutter PT (During Coadministration): 0.0%
Basal cell carcinoma (During Coadministration): 0.0%
Basal cell carcinoma leading to dose interruption (During Coadministration): 0 (0.0%) n (%)
Basal cell carcinoma ≥Grade 3 (During Coadministration): 0 (0.0%) n (%)
Epistaxis (hemorrhage AESI) (During Coadministration): 1.4%
External ear neoplasm malignant leading to dose interruption (During Coadministration): 1 (0.7%) n (%)
Febrile neutropenia PT (During Coadministration): 2.9%
Grade 3 or higher AESI (During Coadministration): 36 (26.1) n (%)
Haematuria (hemorrhage AESI) (During Coadministration): 1.4%
Haematuria (major hemorrhage) (During Coadministration): 0 (0.0%) n (%)
Haematuria (major hemorrhage) ≥Grade 3 (During Coadministration): 0 (0.0%) n (%)
Haematuria leading to dose interruption (During Coadministration): 0 (0.0%) n (%)
Haematuria ≥Grade 3 (During Coadministration): 0 (0.0%) n (%)
Hemorrhage AESI leading to dose interruption (During Coadministration): 0.7%
Hemorrhage AESI ≥Grade 3, EAIR (During Coadministration): 0.16 per 100 person-months
Hemorrhage AESI ≥Grade 3, patients (During Coadministration): 0.7%
Hemorrhage AESI, EAIR (During Coadministration): 4.04 per 100 person-months
Hemorrhage AESI, patients (During Coadministration): 14.5%
Herpes zoster (During Coadministration): 2.2%
Hypertension AESI ≥Grade 3, EAIR (During Coadministration): 0.17 per 100 person-months
Hypertension AESI ≥Grade 3, patients (During Coadministration): 0.7%
Hypertension AESI, EAIR (During Coadministration): 0.70 per 100 person-months
Hypertension AESI, patients (During Coadministration): 2.9%
Infection AESI leading to dose reduction (During Coadministration): 1.4%
Infection AESI leading to treatment discontinuation (During Coadministration): 4.3%
Infection AESI ≥Grade 3, EAIR (During Coadministration): 5.83 per 100 person-months
Infection AESI, EAIR (During Coadministration): 16.79 per 100 person-months
Major hemorrhage AESI leading to dose interruption (During Coadministration): 0.7%
Major hemorrhage AESI ≥Grade 3, EAIR (During Coadministration): 0.16 per 100 person-months
Major hemorrhage AESI ≥Grade 3, patients (During Coadministration): 0.7%
Major hemorrhage AESI, EAIR (During Coadministration): 0.16 per 100 person-months
Major hemorrhage AESI, patients (During Coadministration): 0.7%
Malignant melanoma (During Coadministration): 0 (0.0%) n (%)
Neutropenia AESI leading to dose reduction (During Coadministration): 0.0%
Neutropenia AESI leading to treatment interruption (During Coadministration): 7.2%
Neutropenia AESI ≥Grade 3, EAIR (During Coadministration): 3.72 per 100 person-months
Neutropenia AESI ≥Grade 3, patients (During Coadministration): 12.3%
Neutropenia AESI, EAIR (During Coadministration): 5.43 per 100 person-months
Neutropenia AESI, patients (During Coadministration): 17.4%
Neutropenic sepsis PT (During Coadministration): 0.0%
Neutropenic sepsis ≥Grade 3 (During Coadministration): 0.0%
Neutrophil count decreased leading to dose reduction (During Coadministration): 0.0%
Opportunistic infection AESI leading to dose reduction (During Coadministration): 0.7%
Opportunistic infection AESI leading to treatment discontinuation (During Coadministration): 0.7%
Opportunistic infection AESI ≥Grade 3, EAIR (During Coadministration): 0.50 per 100 person-months
Opportunistic infection AESI ≥Grade 3, patients (During Coadministration): 3 (2.2%) n (%)
